Data: US20260231951A1, “COATED SEEDS AND METHODS TO IMPROVE CROPS” (MONTANA STATE UNIVERSITY, priority 2023, published 2026)

Legend:
wheat [1] = assay: Greenhouse comparison of wheat growth after 25 mM seed treatments of three dithiophosphates; type: in vivo; settings: 25 mM seed treatment in diluted SPRET, 7% w/v, 21 days after planting
Protocol: (§1) All greenhouse experiments took place under a 16-hour photoperiod with temperatures set to 22° C. day and 18° C. night.
Dithiophosphates have different chemical properties depending on the length of their chains. For instance, the length of the carbon chain influences solubility of the chemical and the rate of H2S release. Growth of wheat when treated with 25 mM seed treatments of three different DTPs: dibutyldithiophosphate (C4), dioctyldithiophosphate (C8), and dihexyldecycldithiophosphate (C16) was evaluated. Chemical amount per seed used in 25 mM seed treatment applications is described in Table 1. Seed was treated with a 25 mM solution in which the DTP was dissolved in a low concentration of SPRET non-ionic surfactant (Method 1 below). After seeds had dried, they were sown in moist potting soil at a rate of 4 seeds per pot and then not watered for 5 days. There were 5 reps for each treatment where each rep was the average from a single pot. Measurements were collected 21 days after planting. Tiller number was improved for each of the three DTP treatments but was most improved with the dibutyl dithiophosphate (C4) source (FIG. 4).
(§2) Two seed treatment methods were examined: 1) Seed treated with DBDTP applied using a non-ionic surfactant and 2) Seed treated with DBDTP added to commonly used pesticide seed treatments (Example 8). For this testing, DBDTP was used as the dithiophosphate source. Note that the seed treatment concentration and volume is not standard across plant species. Each species tolerates a different level of DBDTP and the volume used to treat each species is dependent on seed size. After adding treatment to seed, seed was rolled for 5 minutes. Seed was then exposed to air and allowed to dry completely prior to planting.
(§3) For this method, the non-ionic wetter/spreader surfactant used for all treatments was SPRET (Helena Holding Company). The lowest recommended SPRET concentration was selected from the product label (1.25 mL/L H2O).

MT 457 green field pea = assay: Field trial of DBDTP treated green field pea (with pesticide seed treatments); type: in vivo
Protocol: (§4) For this method, DBDTP amounts were combined with commonly used seed treatment pesticides using the recommended, crop-specific amount on the product label. The pesticides that were used include Obvius Plus Specimen fungicide seed treatment (BASF Corporation), Dyna-Shield imidacloprid 5 (Loveland Products), and Cruiser Maxx Vibrance Cereals (Syngenta). Pesticide amounts correspond to species-specific recommended amounts on the product label. After treatments were added to seeds, seed was rolled 5 minutes and allowed to dry completely.
Seed treatment levels consisted of 0, 52, 103, 207, and 413 mM DBDTP (Table 6). Seed was treated with a 1.7% w/v solution that included DBDTP and seed treatment pesticides Dyna-Shield and Obvius (Table 6). After seed was treated and dried, it was inoculated with N Charge Inoculant for Pea, Vetch, and Lentil (Verdesian; 1.40 g/450 g seed) and planted within the same day as inoculating. For each seed treatment level, 15 reps were planted using a complete, randomized block design. Each rep consisted of a 10′, 2 row plot with 60 seeds planted per row. Mature seed was harvested for each plot. […] Seed yield was increased under all treatment levels tested, in a range of 0.04-0.31 mg/seed.

corn = settings: addition to a commercial liquid starter fertilizer applied in furrow with the seeds; cited from earlier work
wheat [2] = assay: Greenhouse test of DBDTP added to Cruiser Maxx Vibrance Cereals slurry for wheat; type: in vivo
Protocol: as §4
DBDTP was added to a slurry of Cruiser Maxx Vibrance Cereals according to Table 8. Prior to the addition of DBDTP, the pesticide was diluted 1:1 Cruiser:H2O. DBDTP was added to the diluted Cruiser, such that 2.1 mg DBDTP was added to 62.5 μL to treat 5 g of seed. This experiment was planted in the greenhouse, and at 14 days after planting, the 25 mM treated seed was taller and had more tillers than the 0 mM control (FIG. 13). This experiment was planted in two separate greenhouses-one where the lights had been recently replaced with new LED lights, and one where the old light system remained. […] The main difference observed between the lights was that growth was much enhanced under the new lights, boosting tillering overall. This means that tillering differences due to DBDTP treatment may be observed earlier under the new LED light system.

pea [3] = assay: Pea germination test (cigar roll method) in aqueous DBDTP; type: in vivo; settings: at all levels of DBDTP tested, 7 days
Protocol: Pea: For germination tests, 25 pea seeds were placed within each roll of germination paper using the cigar method described above. Measurements were recorded after 7 days with n=250.

pea [4] = assay: Greenhouse trial, pea with aqueous delivery of DBDTP; type: in vivo; settings: 4 weeks after planting
Protocol: as §1
Pea: Prior to planting, pots were watered and seed was sown into moist potting soil. Immediately after planting, each pot was watered with 200 mL water containing, 0, 5, 25, 50, 100, or 500 mg dissolved DBDTP. Pots were not watered for ~5 days after planting to avoid flushing DBDTP out of the pot.

MT Dagmar spring wheat = assay: Field trial of DBDTP treated wheat seed; type: in vivo
Protocol: Seed treatment levels consisted of 0, 12.5, 25, 50, and 100 mM DBDTP as in Table 2 and applied in a 7% w/v solution. All seed for each treatment (1000 g) was treated at one time and then once dried it was weighed out for planting in single rows. For each seed treatment level, 15 reps were planted using a complete, randomized block design. Each rep consisted of a 10′, 2 row plot. Plots were seeded at a rate of 10 g/row. Seed was tractor planted, and prior to planting, the field was worked, and N was delivered to achieve 390 Ibs urea/acre. […] The 12.5 mM and 25 mM seed treatments appear to be the best concentrations to boost grain yield as well, as these treatments yielded an average of 3.5-5% higher respectively than the 0 mM control (FIG. 7B). An ideal treatment range encompasses the 12.5 mM and 25 mM treatments and high end of ideal concentrations likely lies between the 25 mM and 50 mM treatments.

Avondale lentil = assay: Greenhouse test of DBDTP seed treatment concentration for lentil growth; type: in vivo
Protocol: Testing was carried out in the greenhouse. Seed was treated according to Table 4. Prior to planting, pots were watered and seed was sown into moist potting soil. Pots were not watered for 5 days after planting to avoid flushing DBDTP out of the pot. […] Seed was treated with a 1.5% w/v solution of diluted SPRET surfactant with addition of DBDTP. Early plant growth was boosted between treatment concentrations 0.188 M-1.7 M. A likely beneficial treatment range lies between 0.03-0.26 mg/seed.

wheat [5] = assay: Wheat germination test (cigar roll method) in aqueous DBDTP; type: in vivo; settings: wheat seeds in germination paper rolls, 7 days, compared to the 0 mg/L control; 41.2 μM-1.03 mM
Protocol: Wheat: For germination tests, 50 wheat seeds were placed within a roll of germination paper using the cigar roll method (Bai C, 2013, J Exp Bot, 64:1745-1753) with n=50. Rolls were placed upright in tubs containing varying concentrations of DBDTP in water, such that the end of the roll was submerged 3″ into the solution. Lids were placed on tubs, then shoot and root length measurements were recorded after 7 days.

Cherry Belle F1 radish = assay: Field trial of DBDTP treated radish seed; type: in vivo
Protocol: Seed treatment levels consisted of 0, 12.5, 25, 50, and 100 mM DBDTP (Table 5) and seed was treated with a 7% w/v solution of diluted SPRET surfactant and DBDTP. For each seed treatment level, 15 reps were planted using a complete, randomized block design. Each rep consisted of a single 3′ row plot. Plots were seeded at a rate of 36 seeds/row and thinned to 4-6″ apart. Root fresh weight was averaged for each row and each row was considered a single rep. Root biomass was increased compared to the control at the 12.5 mM treatment level (FIG. 10). This corresponded to 0.001 mg/seed. Radish root growth likely be enhanced with an application rate in a range of 0.001-0.005 mg DBDTP/seed.

wheat [6] = assay: Greenhouse tests to identify ideal DBDTP seed treatment concentrations for wheat (SPRET surfactant); type: in vivo
Protocol: as §1, §2, §3
Greenhouse tests to identify ideal DBDTP seed treatment concentrations: A 7% w/v solution was used for each DBDTP treatment to achieve an even coating of wheat seeds. For each DBDTP level, small amounts of DBDTP were dissolved in the SPRET solution according to Table 2 and seed was treated with a 7% w/v solution. Five seeds were sown in 6″ pots and averaged for a single rep. Each DBDTP treatment had three replications.

chickpea = assay: Greenhouse test of DBDTP seed treatment concentration for chickpea growth (pesticide slurry); type: in vivo
Protocol: as §4
This test took place in the greenhouse. Seed was treated according to Table 7. Prior to planting, pots were watered and seed was sown into moist potting soil. Pots were not watered for 5 days after planting to avoid flushing DBDTP out of the pot. […] An ideal range likely falls between 0.05-0.46 mg DBDTP/seed.

wheat [7] = assay: Greenhouse trial, wheat with slow-release fertilizer and aqueous delivery of DBDTP; type: in vivo; settings: 5 and 25 mg/pot DBDTP in 200 mL water, in the presence of fertilizer (Osmocote), 4 weeks after planting
Protocol: as §1
Wheat: To test whether the germination test growth enhancement response observed in wheat would still occur in the presence of added nitrogen fertilizer, wheat was grown under varying levels of slow-release fertilizer (Osmocote) and then watered in with an aqueous solution of DBDTP (see Carter J M, et al., 2019, J. Agric Food Chem. 67:11883-11892). Osmocote was added to potting soil according to the label to achieve low or medium fertilization rates. Prior to planting, pots were watered and seed was sown into moist potting soil. Immediately after planting, each pot was watered with 200 mL water containing, 0, 5, 25, 50, 100, or 500 mg dissolved DBDTP. Pots were not watered for ~5 days after planting to avoid flushing DBDTP out of the pot.

Provider bush beans = assay: Field trial of DBDTP treated green bean seed; type: in vivo
Protocol: Seed treatment levels consisted of 0, 175 mM, 350 mM, 700 mM, and 1.4 M DBDTP (Table 3) and seed was treated with a 5% w/v solution of diluted SPRET surfactant and DBDTP. For each seed treatment level, 15 reps were planted using a complete, randomized block design. Each rep consisted of a 3′, 2 row plot with 18 seeds planted per row. Entire plants were harvested at maturity and biomass was averaged for each row. Each row was considered a single rep. For each plot of treated seed, biomass was increased compared to the 0 mM control (FIG. 8A). […] Depending on whether the goal was to increase seed weight, or plant biomass, an ideal treatment range encompasses the 175 mM, 350 mM, and 700 mM treatments. These concentrations correspond to a range of 0.07-0.28 mg DBDTP/seed.

[8] = 25 mM in Cruiser Maxx Vibrance Cereals slurry, 14 days after planting, vs 0 mM control
[9] = seed treatments of up to 50 mM DBDTP, 35 days after planting

Molecule: dihexyldecycldithiophosphate [dihexyldecycldithiophosphate (C16)]
- tiller number (wheat [1]): improved

Molecule: CCCCOP(=S)(S)OCCCC [DBDTP, dibutyl dithiophosphate]
- seed yield, best treatment (MT 457 green field pea; 413 mM treated seed): highest yielding
- seed yield (MT 457 green field pea; each plot of treated seed (52, 103, 207, 413 mM), with Dyna-Shield and Obvius, vs control): increased
- Likely ideal DBDTP range, pea (range in which seed yield was increased) (MT 457 green field pea; seed treatment, pea): 0.04-0.31 mg/seed
- corn yield (corn): increases corn yield
- tiller number (wheat [1]): most improved
- plant height (wheat [2]; [8]): taller
- tiller number (wheat [2]; [8]): more tillers
- performance against control in both greenhouses (new LED lights, old light system) (wheat [2]; 25 mM treated seed): outperformed the control
- growth response of pea seedlings (pea [3]): positive growth response
- growth response (pea vine length), best doses (pea [4]; 100 and 500 mg/pot DBDTP): greatest boost to growth
- growth response (pea vine length) (pea [4]; each DBDTP treatment (5, 25, 50, 100, 500 mg/pot in 200 mL water)): positive response
- grain yield, average increase over the 0 mM control (MT Dagmar spring wheat; 12.5 mM seed treatment): 3.5%
- grain yield, average increase over the 0 mM control (MT Dagmar spring wheat; 25 mM seed treatment): 5%
- plant growth and yield (MT Dagmar spring wheat; 100 mM DBDTP seed treatment): significantly diminished
- tiller number (MT Dagmar spring wheat; 12.5 and 25 mM seed treatment, 4 weeks after planting, vs 0 mM control): significantly higher
- growth response of lentil (Avondale lentil; around the 375 mM treatment level, 14 days after planting, 1.5% w/v SPRET): positive DBDTP growth response
- Likely ideal (beneficial) DBDTP range, lentil (Avondale lentil; seed treatment, lentil): 0.03-0.26 mg/seed
- DBDTP concentration range with positive growth response (shoot and root length) (wheat [5]): 10 to 250 mg/L
- root biomass (root fresh weight) (Cherry Belle F1 radish; 12.5 mM treatment level (0.001 mg/seed), vs control): increased
- Likely ideal DBDTP range, radish (Cherry Belle F1 radish; seed treatment, radish): 0.001-0.005 mg/seed
- germination (wheat [6]; seed treatment doses higher than 50 mM, 7% w/v in SPRET): reduce germination
- plant height (wheat [6]; [9]): enhanced
- tiller number (wheat [6]; [9]): enhanced
- growth response of chickpea (chickpea; 100 mM treatment level in pesticide slurry, 14 days after planting): positive DBDTP growth response
- Likely ideal DBDTP range, chickpea (chickpea; seed treatment, chickpea): 0.05-0.46 mg/seed
- tiller number (wheat [7]): boost to tiller number
- plant biomass (Provider bush beans; each plot of treated seed (175 mM, 350 mM, 700 mM, 1.4 M), harvested at maturity, vs 0 mM control): increased
- seed pod weight (Provider bush beans; lowest level tested (175 mM), vs control): increased
- Likely ideal DBDTP range, green bean (Provider bush beans; seed treatment, green bean): 0.07-0.28 mg/seed

Molecule: CCCCCCCCOP(=S)(S)OCCCCCCCC [dioctyldithiophosphate (C8), dioctyldithiophosphate]
- tiller number (wheat [1]): improved
